Data from the supplement of paper PMC10307832.

How the values were obtained:
Assay in all cases: relative viability (nuclei count vs DMSO), 5 days (fraction); higher = more cells survive
[1] = compound: C/C(=N\NC(=S)N1CCC1)/C2=CC=CC=N2 + CC(=O)c1c(C)c2cnc(Nc3ccc(N4CCNCC4)cn3)nc2n(C2CCCC2)c1=O [Palbociclib] (partner 0.5 µM)
Summary of the method: (§1)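 Relative viability was taken as the ratio of nuclei in treated wells to nuclei in vehicle wells. Lung cancer cell lines in 1536-well plates received compounds by pin tool one day after seeding, either one drug alone or a fixed anchor-drug dose plus five library-drug doses (not always all listed) in √10 steps. Nuclei were counted on 4× images after 5 days of treatment, and values are medians of duplicate plates.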

[2] = compound: C/C(=N\NC(=S)N1CCC1)/C2=CC=CC=N2 + C[C@@H](Oc1cc(-c2cnn(C3CCNCC3)c2)cnc1N)c1c(Cl)ccc(F)c1Cl [Crizotinib] (partner 1 µM)
Summary of the method: as §1

[3] = compound: C/C(=N\NC(=S)N1CCC1)/C2=CC=CC=N2 + O=C(CCCCCCC(=O)Nc1ccccc1)NO [Vorinostat] (partner 1 µM)
Summary of the method: as §1

[4] = compound: C/C(=N\NC(=S)N1CCC1)/C2=CC=CC=N2 + NC(=O)Nc1cc(-c2cccc(F)c2)sc1C(=O)N[C@H]1CCCNC1 [AZD7762] (partner 0.2 µM)
Summary of the method: as §1

Row | Cell Line | relative viability ([1]; first compound 0.05 µM) | relative viability ([1]; first compound 0.1581 µM) | relative viability ([1]; first compound 0.5 µM) | relative viability ([1]; first compound 1.581 µM) | relative viability ([1]; first compound 5 µM) | relative viability ([2]; first compound 0.05 µM) | relative viability ([2]; first compound 0.1581 µM) | relative viability ([2]; first compound 0.5 µM) | relative viability ([2]; first compound 1.581 µM) | relative viability ([2]; first compound 5 µM) | relative viability ([3]; first compound 0.05 µM) | relative viability ([3]; first compound 0.1581 µM) | relative viability ([3]; first compound 0.5 µM) | relative viability ([3]; first compound 1.581 µM) | relative viability ([3]; first compound 5 µM) | relative viability ([4]; first compound 0.05 µM) | relative viability ([4]; first compound 0.1581 µM) | relative viability ([4]; first compound 0.5 µM) | relative viability ([4]; first compound 1.581 µM) | relative viability ([4]; first compound 5 µM)
1 | HCC-366 | 0.065 | 0.0358 | 0.0237 | 0.0228 | 0.026 | 0.0857 | 0.0157 | 0.0133 | 0.0162 | 0.018 | 0.0207 | 0.0269 | 0.0257 | 0.0337 | 0.0244 | 0.0319 | 0.0257 | 0.0217 | 0.0308 | 0.0241
2 | HCC-827 | 0.272 | 0.229 | 0.173 | 0.166 | 0.144 | 0.675 | 0.894 | 0.307 | 0.296 | 0.204 | 0.251 | 0.214 | 0.18 | 0.233 | 0.149 | 0.14 | 0.176 | 0.104 | 0.106 | 0.172
3 | IA-LM |  |  |  |  |  | 0.0891 | 0.0621 | 0.0599 | 0.0518 | 0.0471 | 0.0691 | 0.0691 | 0.0591 | 0.059 | 0.051 |  |  |  |  | 
4 | NCI-H520 | 0.119 | 0.139 | 0.121 | 0.114 | 0.151 | 0.0874 | 0.112 | 0.123 | 0.104 | 0.116 | 0.177 | 0.156 | 0.163 | 0.182 | 0.159 |  |  |  |  | 
5 | NCI-H522 | 0.432 | 0.376 | 0.284 | 0.381 | 0.412 |  |  |  |  |  | 0.272 | 0.322 | 0.265 | 0.369 | 0.411 | 0.307 | 0.279 | 0.24 | 0.292 | 0.397
6 | NCI-H596 |  |  |  |  |  | 0.896 | 0.302 | 0.242 | 0.251 | 0.258 | 0.27 | 0.255 | 0.253 | 0.241 | 0.23 | 0.331 | 0.321 | 0.312 | 0.244 | 0.297
7 | NCI-H661 | 0.284 | 0.252 | 0.251 | 0.231 | 0.223 | 0.361 | 0.322 | 0.263 | 0.349 | 0.288 | 0.324 | 0.297 | 0.289 | 0.283 | 0.259 |  |  |  |  | 
8 | NCI-H1299 |  |  |  |  |  | 0.16 | 0.16 | 0.191 | 0.19 | 0.102 |  |  |  |  |  |  |  |  |  | 
9 | NCI-H1395 | 0.33 | 0.333 | 0.329 | 0.366 | 0.381 |  |  |  |  |  | 0.302 | 0.405 | 0.31 | 0.312 | 0.339 | 0.287 | 0.326 | 0.402 | 0.35 | 0.406
10 | NCI-H1563 |  |  |  |  |  | 0.604 | 0.557 | 0.526 | 0.553 | 0.527 |  |  |  |  |  |  |  |  |  | 
11 | NCI-H1648 | 0.258 | 0.301 | 0.322 | 0.352 | 0.337 |  |  |  |  |  | 0.217 | 0.48 | 0.339 | 0.342 | 0.245 | 0.337 | 0.305 | 0.269 | 0.288 | 0.297
12 | NCI-H1650 | 0.17 | 0.119 | 0.138 | 0.138 | 0.163 | 0.18 | 0.199 | 0.19 | 0.153 | 0.175 | 0.159 | 0.171 | 0.143 | 0.143 | 0.178 |  |  |  |  | 
13 | NCI-H1703 |  |  |  |  |  | 0.15 | 0.103 | 0.0957 | 0.115 | 0.0425 |  |  |  |  |  | 0.0509 | 0.0548 | 0.0472 | 0.114 | 0.102
14 | NCI-H1792 | 0.426 | 0.398 | 0.363 | 0.272 | 0.259 | 0.38 | 0.453 | 0.245 | 0.186 | 0.108 |  |  |  |  |  | 0.107 | 0.0965 | 0.0559 | 0.0274 | 0.0333
15 | NCI-H1793 | 0.191 | 0.162 | 0.146 | 0.155 | 0.174 |  |  |  |  |  | 0.189 | 0.139 | 0.127 | 0.124 | 0.133 | 0.129 | 0.199 | 0.104 | 0.116 | 0.142
16 | NCI-H2009 | 0.0949 | 0.102 | 0.108 | 0.112 | 0.0775 | 0.112 | 0.131 | 0.124 | 0.149 | 0.0903 | 0.0755 | 0.107 | 0.129 | 0.103 | 0.0974 |  |  |  |  | 
17 | NCI-H2023 | 0.0715 | 0.0684 | 0.0648 | 0.0566 | 0.086 | 0.1 | 0.0841 | 0.08 | 0.0545 | 0.0727 | 0.082 | 0.0635 | 0.0543 | 0.0492 | 0.043 |  |  |  |  | 
18 | NCI-H2228 | 0.134 | 0.167 | 0.127 | 0.0641 | 0.315 | 0.169 | 0.213 | 0.262 | 0.141 | 0.149 | 0.231 | 0.15 | 0.166 | 0.156 | 0.145 |  |  |  |  | 
19 | NCI-H2342 | 0.276 | 0.283 | 0.274 | 0.253 | 0.255 |  |  |  |  |  | 0.28 | 0.288 | 0.267 | 0.234 | 0.265 | 0.302 | 0.32 | 0.278 | 0.256 | 0.285
20 | SK-LU-1 | 0.233 | 0.233 | 0.246 | 0.196 | 0.233 | 0.277 | 0.191 | 0.203 | 0.19 | 0.208 | 0.21 | 0.244 | 0.242 | 0.219 | 0.272 |  |  |  |  | 
21 | SK-MES-1 | 0.221 | 0.2 | 0.2 | 0.174 | 0.177 | 0.231 | 0.214 | 0.179 | 0.167 | 0.177 | 0.198 | 0.208 | 0.182 | 0.177 | 0.183 |  |  |  |  | 
22 | SW 1573 | 0.0872 | 0.139 | 0.131 | 0.0878 | 0.0783 | 0.11 | 0.123 | 0.138 | 0.102 | 0.0709 | 0.0949 | 0.115 | 0.145 | 0.0758 | 0.0799 |  |  |  |  | 
23 | UMC-11 | 0.155 | 0.139 | 0.238 | 0.213 | 0.169 | 0.181 | 0.115 | 0.128 | 0.101 | 0.0892 | 0.168 | 0.14 | 0.146 | 0.134 | 0.139 |  |  |  |  | 
